The target of assay [1] is Glycogen synthase kinase-3 beta (Homo sapiens) (UniProt P49841). Description: reduction of cellular Tau Ser199 phosphorylation, dose response, cell-based, SH-SY5Y, ELISA, pTau Ser199, powder samples (AID 624057). As to conditions: SH-SY5Y pTau(Ser199)/total Tau ELISA. On the technique in general: ELISA stands for enzyme-linked immunosorbent assay.
Experiment in assay [2]: as above
As to conditions: SH-SY5Y pTau(Ser199)/total Tau ELISA; measured here: cell survival (total Tau) top dose; at 35 µM; stronger effect = lower value.

“And” between values parts separate entries of the source, which are not always exact repeats. Identical values can stand only once. The source made the active and inactive calls. The rule behind the calls is not given here.

Glycogen synthase kinase-3 beta (Homo sapiens), sequence (P49841 whole entry, looked up): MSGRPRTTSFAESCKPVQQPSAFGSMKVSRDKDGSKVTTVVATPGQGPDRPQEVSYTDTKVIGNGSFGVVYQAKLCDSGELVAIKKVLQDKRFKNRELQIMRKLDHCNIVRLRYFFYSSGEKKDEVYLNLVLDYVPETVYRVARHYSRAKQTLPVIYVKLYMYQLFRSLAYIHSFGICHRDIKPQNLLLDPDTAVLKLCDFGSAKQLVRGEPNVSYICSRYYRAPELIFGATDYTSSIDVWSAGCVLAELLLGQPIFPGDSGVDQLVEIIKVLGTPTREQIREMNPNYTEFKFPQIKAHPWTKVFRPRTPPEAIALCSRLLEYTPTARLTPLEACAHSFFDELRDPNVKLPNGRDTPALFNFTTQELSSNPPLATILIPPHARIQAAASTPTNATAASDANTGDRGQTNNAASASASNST

As usually defined, the IC50 is the concentration that inhibits the measured activity by half. `Cc1[nH]nc2c1[C@H](c1ccccc1C(F)(F)F)C1=C(CC(C)(C)CC1=O)N2`: the IC50 in assay [1] was > 35 µM (inactive).

As usually defined, the viability is a read-out of living cells in per cent, often relative to untreated cells. As to `Cc1[nH]nc2c1C(c1cccc(C#N)c1)C1=C(CC(C)(C)CC1=O)N2` (stereo not drawn), the IC50 in assay [1] was 2.5 µM. In addition, the viability in assay [2] was 119%.

For `Cc1[nH]nc2c1C(c1cccc3nonc13)C1=C(CC(C)(C)CC1=O)N2` (stereo not drawn), in assay [1], the IC50 was 2.27 µM. For the same compound, the viability in assay [2] came out at 112%.

`COc1ccccc1[C@@H]1C2=C(CC(C)(C)CC2=O)Nc2n[nH]c(C(F)(F)F)c21`: the IC50 in assay [1] is 0.56 µM.

Take `Cc1[nH]nc2c1C(c1ccccc1Cl)C1=C(CC(C)(C)CC1=O)N2` (stereo not drawn): the IC50 in assay [1] was 2.49 µM.

Take `COc1ccccc1[C@@H]1C2=C(CC(C)(C)CC2=O)Nc2n[nH]c(C)c21`: the IC50 in assay [1] is 6.57 µM and > 35 µM (inactive).

For `Cc1[nH]nc2c1C(c1ccccc1F)C1=C(CC(C)(C)CC1=O)N2` (stereo not drawn), in assay [2], the viability worked out at 113%.

For the compound `Cc1[nH]nc2c1C(c1ccccc1C(F)(F)F)C1=C(CC(C)(C)CC1=O)N2` (stereo not drawn), in assay [1], the IC50 is 4.24 µM.

In the case of `CSc1ccccc1C1C2=C(CC(C)(C)CC2=O)Nc2n[nH]c(C)c21` (stereo not drawn), the IC50 in assay [1] was 2.85 µM. Also, in assay [2], the viability worked out at 106%.

Take `COc1ccccc1[C@H]1C2=C(CC(C)(C)CC2=O)Nc2n[nH]c(C(F)(F)F)c21`: the IC50 in assay [1] was > 35 µM (inactive).

With `COc1ccccc1C1C2=C(CC(C)(C)CC2=O)Nc2n[nH]c(C)c21` (stereo not drawn), the IC50 in assay [1] is 7.1 µM.

With `CC1(C)CC(=O)C2=C(C1)Nc1n[nH]c(C(F)(F)F)c1C2(C)c1ccccc1` (stereo not drawn), the concentration for half-maximal inhibition (IC50) in assay [1] is 1.87 µM.

In the case of `CC1(C)CC(=O)C2=C(C1)Nc1n[nH]c(C(F)(F)F)c1C2c1ccccc1C(F)(F)F` (stereo not drawn), the IC50 in assay [1] is 0.41 µM.

Turning to `CC1(C)CC(=O)C2=C(C1)Nc1n[nH]c(C(F)(F)F)c1C2c1ccccc1` (stereo not drawn), the IC50 in assay [1] was 0.51 µM.

Regarding `Cc1[nH]nc2c1C(c1cccc(C(F)(F)F)c1)C1=C(CC(C)(C)CC1=O)N2` (stereo not drawn), in assay [1], the IC50 is 4.68 µM.

`Cc1[nH]nc2c1[C@@H](c1ccccc1C(F)(F)F)C1=C(CC(C)(C)CC1=O)N2`: the IC50 in assay [1] is 2.27 µM. Also, the viability in assay [2] came to 110%.

Regarding `COc1ccccc1C1C2=C(CC(C)(C)CC2=O)Nc2n[nH]c(C(F)(F)F)c21` (stereo not drawn), the 50% inhibitory concentration (IC50) in assay [1] was 2.75 µM and 0.76 µM.

For `CC1(C)CC(=O)C2=C(C1)Nc1n[nH]c(C(F)(F)F)c1C2c1cccc(F)c1C(F)(F)F` (stereo not drawn), the IC50 in assay [1] was 1.38 µM. For the same compound, the viability in assay [2] was determined as 57.1%.

For the origin of these results see PubChem BioAssay AID624057 (Broad Institute, 2012).
